From ChEMBL document CHEMBL1201862, “PubChem BioAssay data set” (2004)
Activity calls are given as the source filed them.

Legend:
Cytochrome P450 1A2 = biological target: T1, Cytochrome P450 1A2 (Homo sapiens, UniProt P05177);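 note: PubChem cytochrome P450 panel assay, CYP1A2 panel member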
T1 sequence (P05177 whole entry): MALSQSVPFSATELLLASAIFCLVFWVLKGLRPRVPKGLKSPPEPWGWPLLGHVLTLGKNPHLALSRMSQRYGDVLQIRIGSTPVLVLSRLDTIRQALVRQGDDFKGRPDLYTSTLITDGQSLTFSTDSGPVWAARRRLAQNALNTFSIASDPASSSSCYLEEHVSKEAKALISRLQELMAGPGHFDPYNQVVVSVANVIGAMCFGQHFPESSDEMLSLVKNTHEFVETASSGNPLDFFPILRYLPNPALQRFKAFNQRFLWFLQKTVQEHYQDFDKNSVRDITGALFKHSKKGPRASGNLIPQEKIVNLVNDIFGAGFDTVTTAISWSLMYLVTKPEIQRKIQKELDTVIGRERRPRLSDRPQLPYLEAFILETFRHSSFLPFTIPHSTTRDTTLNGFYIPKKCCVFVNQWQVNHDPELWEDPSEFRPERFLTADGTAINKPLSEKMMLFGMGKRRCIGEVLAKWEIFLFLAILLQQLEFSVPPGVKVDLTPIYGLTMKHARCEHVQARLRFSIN

[1] = biological target: T2, Dual specificity protein phosphatase 3 (Homo sapiens, UniProt P51452); assay: VHR1 phosphatase inhibitors, primary screen, biochemical, absorbance, uHTS (AID 1654)
T2 sequence (P51452 whole entry): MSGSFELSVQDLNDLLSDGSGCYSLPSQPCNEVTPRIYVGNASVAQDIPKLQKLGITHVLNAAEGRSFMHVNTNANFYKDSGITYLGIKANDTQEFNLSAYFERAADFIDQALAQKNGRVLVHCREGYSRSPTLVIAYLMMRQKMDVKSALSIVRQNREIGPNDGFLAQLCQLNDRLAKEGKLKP

[2] = biological target: T3, Dual specificity protein phosphatase 6 (Rattus norvegicus, UniProt Q64346); assay: MKP-3 phosphatase inhibitors, primary screen, biochemical, rat enzyme, in vitro (AID 425)
T3 sequence (Q64346 whole entry): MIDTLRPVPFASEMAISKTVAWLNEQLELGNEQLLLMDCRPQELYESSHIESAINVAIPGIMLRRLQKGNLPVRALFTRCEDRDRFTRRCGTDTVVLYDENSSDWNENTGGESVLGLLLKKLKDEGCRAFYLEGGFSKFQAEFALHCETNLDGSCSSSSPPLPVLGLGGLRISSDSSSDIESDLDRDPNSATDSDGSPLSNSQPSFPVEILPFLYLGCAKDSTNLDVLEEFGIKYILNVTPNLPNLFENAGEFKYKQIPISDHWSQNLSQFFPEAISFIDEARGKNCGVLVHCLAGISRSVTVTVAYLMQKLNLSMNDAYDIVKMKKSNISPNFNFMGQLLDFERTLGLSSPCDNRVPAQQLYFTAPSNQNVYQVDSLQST

[3] = biological target: T3, Dual specificity protein phosphatase 6; format: functional
[4] = biological target: DNA (cytosine-5)-methyltransferase 1 (Homo sapiens, UniProt P26358); assay: DNMT1 methyltransferase inhibitors, confirmation, biochemical, fluorescent molecular beacon (AID 602386); format: functional
DNA (cytosine-5)-methyltransferase 1, sequence (P26358 whole entry): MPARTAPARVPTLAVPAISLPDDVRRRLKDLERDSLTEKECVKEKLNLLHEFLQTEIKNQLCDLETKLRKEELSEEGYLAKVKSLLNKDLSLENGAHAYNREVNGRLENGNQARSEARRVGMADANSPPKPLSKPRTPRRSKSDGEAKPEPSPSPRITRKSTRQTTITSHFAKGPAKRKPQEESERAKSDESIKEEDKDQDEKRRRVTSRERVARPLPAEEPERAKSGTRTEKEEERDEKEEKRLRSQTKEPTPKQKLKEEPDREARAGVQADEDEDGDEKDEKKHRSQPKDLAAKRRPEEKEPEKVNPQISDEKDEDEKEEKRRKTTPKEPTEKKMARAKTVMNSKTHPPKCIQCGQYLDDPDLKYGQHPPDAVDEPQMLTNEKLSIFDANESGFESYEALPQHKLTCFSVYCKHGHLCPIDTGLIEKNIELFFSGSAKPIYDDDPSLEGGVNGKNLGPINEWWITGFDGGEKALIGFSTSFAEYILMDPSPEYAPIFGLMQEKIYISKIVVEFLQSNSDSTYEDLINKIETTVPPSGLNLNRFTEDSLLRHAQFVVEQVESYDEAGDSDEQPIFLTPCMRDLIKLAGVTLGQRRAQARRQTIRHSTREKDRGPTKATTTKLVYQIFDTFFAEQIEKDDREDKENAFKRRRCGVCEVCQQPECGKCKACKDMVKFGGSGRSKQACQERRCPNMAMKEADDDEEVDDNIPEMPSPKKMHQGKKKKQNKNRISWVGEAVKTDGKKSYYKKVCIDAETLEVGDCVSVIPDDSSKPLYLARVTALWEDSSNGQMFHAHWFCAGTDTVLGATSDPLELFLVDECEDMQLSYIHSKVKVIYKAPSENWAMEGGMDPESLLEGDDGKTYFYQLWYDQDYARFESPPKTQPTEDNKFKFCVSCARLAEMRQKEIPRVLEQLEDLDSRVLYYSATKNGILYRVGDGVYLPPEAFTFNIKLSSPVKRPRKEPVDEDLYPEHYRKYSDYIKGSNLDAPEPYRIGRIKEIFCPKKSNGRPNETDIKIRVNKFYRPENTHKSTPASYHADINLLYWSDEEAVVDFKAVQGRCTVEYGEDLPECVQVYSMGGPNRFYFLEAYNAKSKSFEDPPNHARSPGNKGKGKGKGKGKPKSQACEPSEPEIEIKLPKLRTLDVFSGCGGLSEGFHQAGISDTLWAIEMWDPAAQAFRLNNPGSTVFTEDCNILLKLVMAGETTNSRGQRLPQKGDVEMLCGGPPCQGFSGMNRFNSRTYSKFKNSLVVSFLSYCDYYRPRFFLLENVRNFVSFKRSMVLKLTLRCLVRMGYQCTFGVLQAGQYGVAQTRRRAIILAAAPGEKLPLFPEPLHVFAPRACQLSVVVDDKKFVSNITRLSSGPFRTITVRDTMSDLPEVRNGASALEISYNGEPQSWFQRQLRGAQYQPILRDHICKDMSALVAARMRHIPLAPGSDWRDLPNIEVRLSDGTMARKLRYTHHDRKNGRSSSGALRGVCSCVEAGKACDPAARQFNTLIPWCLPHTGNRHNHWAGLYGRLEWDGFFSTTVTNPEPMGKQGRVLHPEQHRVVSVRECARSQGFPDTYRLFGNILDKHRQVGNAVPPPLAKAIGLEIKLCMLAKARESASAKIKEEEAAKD

Aminopeptidase N = biological target: T4, Aminopeptidase N (Plasmodium falciparum FcB1/Columbia, UniProt O96935); assay: P. falciparum M1AAP inhibitors, biochemical, fluorogenic H-Leu-NHMec substrate, 1536-well (AID 1445); parameters: species or system Plasmodium falciparum 3D7, 3D7
T4 sequence (O96935 whole entry): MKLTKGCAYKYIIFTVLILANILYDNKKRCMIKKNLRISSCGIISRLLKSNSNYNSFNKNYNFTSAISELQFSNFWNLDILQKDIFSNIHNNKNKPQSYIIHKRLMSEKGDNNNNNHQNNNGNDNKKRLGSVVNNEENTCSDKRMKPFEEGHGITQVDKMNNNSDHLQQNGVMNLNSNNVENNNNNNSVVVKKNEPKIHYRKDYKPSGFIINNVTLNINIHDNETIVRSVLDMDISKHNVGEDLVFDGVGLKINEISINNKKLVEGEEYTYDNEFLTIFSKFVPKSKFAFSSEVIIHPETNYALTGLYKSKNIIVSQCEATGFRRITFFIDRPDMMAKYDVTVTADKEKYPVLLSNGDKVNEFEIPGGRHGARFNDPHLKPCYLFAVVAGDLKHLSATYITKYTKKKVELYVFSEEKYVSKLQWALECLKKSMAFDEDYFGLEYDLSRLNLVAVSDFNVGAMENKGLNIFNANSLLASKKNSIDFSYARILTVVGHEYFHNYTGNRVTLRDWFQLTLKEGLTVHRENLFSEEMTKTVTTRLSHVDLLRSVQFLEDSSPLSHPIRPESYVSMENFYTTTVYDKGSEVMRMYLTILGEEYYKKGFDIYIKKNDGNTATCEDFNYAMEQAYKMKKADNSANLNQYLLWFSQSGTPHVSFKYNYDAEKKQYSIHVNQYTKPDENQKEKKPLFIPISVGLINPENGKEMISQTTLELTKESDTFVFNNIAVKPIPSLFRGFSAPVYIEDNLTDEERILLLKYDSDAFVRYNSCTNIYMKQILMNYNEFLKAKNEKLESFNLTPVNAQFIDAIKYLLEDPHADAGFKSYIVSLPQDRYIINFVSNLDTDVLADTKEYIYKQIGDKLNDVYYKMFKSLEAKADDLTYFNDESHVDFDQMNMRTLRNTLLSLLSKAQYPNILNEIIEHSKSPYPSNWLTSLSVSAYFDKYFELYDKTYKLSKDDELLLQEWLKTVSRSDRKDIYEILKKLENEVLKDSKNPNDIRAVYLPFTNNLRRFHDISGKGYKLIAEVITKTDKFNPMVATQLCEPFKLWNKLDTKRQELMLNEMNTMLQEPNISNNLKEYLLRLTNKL

[5] = biological target: T2, Dual specificity protein phosphatase 3; assay: SAR VHR1 absorbance Assay for In Vitro dose response studies. [Related pubchem assays (depositor defined):AID1654, AID1661, AID1878, AID1992, AID2004]
[6] = biological target: T5, Tyrosine-protein phosphatase non-receptor type 7 (Homo sapiens, UniProt P35236); assay: redox-dependent HePTP inhibition, mechanism study, biochemical, fluorescence (AID 2068); format: functional
T5 sequence (P35236 whole entry): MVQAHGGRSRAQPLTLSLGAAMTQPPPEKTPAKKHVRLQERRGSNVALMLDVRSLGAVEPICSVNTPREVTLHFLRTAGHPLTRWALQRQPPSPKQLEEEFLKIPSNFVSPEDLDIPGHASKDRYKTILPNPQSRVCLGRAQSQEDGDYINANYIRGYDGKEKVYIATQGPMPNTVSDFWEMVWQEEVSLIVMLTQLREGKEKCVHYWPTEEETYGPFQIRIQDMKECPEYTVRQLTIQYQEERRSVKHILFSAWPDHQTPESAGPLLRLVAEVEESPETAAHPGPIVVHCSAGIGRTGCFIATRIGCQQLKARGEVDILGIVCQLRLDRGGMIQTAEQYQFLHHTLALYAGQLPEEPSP

[7] = biological target: T2, Dual specificity protein phosphatase 3; assay: VHR1 phosphatase inhibitors, biochemical (AID 1878)
[8] = biological target: T2, Dual specificity protein phosphatase 3; assay: SAR VHR1 Fluorescent Assay for In Vitro dose response studies. [Related pubchem assays (depositor defined):AID1654, AID1661, AID1878, AID1992, AID2004, AID2070, AID2085]; format: functional
[9] = biological target: NAD-dependent protein deacylase sirtuin-5, mitochondrial (Homo sapiens, UniProt Q9NXA8); assay: SIRT5 desuccinylase inhibitors, dose response, biochemical, fluorescence imaging, cherry-pick, set 5 (AID 720591);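 note: desuccinylation of succinyl peptide AMC substrate read as fluorescence after trypsin release; potency of inhibitors that lower fluorescence and may act on trypsin instead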
NAD-dependent protein deacylase sirtuin-5, mitochondrial, sequence (Q9NXA8 whole entry): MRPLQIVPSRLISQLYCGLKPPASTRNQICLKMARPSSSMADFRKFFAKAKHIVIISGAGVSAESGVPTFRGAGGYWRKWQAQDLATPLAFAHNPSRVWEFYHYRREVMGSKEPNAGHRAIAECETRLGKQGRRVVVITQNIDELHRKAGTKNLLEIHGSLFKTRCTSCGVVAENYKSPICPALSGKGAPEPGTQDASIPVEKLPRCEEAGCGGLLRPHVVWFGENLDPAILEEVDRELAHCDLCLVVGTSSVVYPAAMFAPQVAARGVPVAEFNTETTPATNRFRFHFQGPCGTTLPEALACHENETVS

Genome polyprotein = Genome polyprotein (dengue virus type 2, UniProt P29990); assay: Dengue-2 NS5 methyltransferase inhibitors, primary screen, biochemical, confirmation dose response (AID 588689); format: functional
Genome polyprotein, sequence (P29990 2492-3391 limits assumed): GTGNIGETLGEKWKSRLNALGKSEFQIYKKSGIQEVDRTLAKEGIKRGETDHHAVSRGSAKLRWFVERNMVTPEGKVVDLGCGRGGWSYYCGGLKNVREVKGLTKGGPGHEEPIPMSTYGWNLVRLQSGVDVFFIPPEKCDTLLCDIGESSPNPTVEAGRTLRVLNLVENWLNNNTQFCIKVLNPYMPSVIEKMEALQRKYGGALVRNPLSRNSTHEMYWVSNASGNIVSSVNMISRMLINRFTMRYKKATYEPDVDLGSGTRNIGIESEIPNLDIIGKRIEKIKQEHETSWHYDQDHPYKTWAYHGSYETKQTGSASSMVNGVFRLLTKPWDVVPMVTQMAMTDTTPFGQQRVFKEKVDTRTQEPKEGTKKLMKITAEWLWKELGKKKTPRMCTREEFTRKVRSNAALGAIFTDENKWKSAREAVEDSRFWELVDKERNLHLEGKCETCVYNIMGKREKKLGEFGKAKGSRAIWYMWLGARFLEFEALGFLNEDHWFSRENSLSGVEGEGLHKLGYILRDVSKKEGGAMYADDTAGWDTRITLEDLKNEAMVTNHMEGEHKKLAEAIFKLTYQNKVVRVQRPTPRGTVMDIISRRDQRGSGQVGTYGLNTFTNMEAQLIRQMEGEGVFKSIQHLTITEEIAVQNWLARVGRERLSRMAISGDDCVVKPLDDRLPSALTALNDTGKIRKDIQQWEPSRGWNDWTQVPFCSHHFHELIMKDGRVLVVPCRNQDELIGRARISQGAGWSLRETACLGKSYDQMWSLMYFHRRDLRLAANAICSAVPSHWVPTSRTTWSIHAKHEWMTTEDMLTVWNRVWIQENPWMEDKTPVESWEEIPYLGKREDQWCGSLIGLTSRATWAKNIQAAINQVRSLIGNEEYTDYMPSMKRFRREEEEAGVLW

Trypsin = Trypsin (Sus scrofa, UniProt P00761); assay: porcine trypsin inhibitors, dose response, selectivity assay for Rce1 protease inhibitor project, biochemical, quenched peptide fluorescence, cherry-pick (AID 488789)
Trypsin, sequence (P00761 whole entry): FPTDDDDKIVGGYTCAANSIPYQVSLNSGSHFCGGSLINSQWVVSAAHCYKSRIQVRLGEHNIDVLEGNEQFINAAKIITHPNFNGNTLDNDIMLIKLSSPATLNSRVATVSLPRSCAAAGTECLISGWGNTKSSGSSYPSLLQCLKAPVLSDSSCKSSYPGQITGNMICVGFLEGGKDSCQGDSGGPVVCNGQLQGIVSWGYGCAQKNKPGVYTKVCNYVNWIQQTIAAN

CAAX prenyl protease 1 = CAAX prenyl protease 1 (Saccharomyces cerevisiae S288c, UniProt P47154); assay: Ste24 protease inhibitors, dose response, biochemical, S. cerevisiae, plate reader, cherry-pick (AID 488815)
CAAX prenyl protease 1, sequence (P47154 whole entry): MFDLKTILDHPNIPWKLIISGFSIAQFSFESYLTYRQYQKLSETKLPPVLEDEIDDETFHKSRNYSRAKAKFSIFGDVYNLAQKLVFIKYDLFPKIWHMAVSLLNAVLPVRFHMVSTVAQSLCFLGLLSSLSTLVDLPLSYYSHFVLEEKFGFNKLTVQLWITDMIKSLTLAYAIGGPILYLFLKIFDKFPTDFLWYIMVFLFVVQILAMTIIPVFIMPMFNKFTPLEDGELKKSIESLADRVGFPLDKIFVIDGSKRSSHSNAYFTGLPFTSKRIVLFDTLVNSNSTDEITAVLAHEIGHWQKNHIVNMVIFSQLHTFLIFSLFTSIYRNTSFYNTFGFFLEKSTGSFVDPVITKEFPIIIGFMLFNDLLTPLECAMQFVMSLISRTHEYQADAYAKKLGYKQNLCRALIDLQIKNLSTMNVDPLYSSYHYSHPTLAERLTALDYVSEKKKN

CAAX prenyl protease 2 = biological target: T6, CAAX prenyl protease 2 (Saccharomyces cerevisiae S288c, UniProt Q03530); format: biochemical
T6 sequence (Q03530 whole entry): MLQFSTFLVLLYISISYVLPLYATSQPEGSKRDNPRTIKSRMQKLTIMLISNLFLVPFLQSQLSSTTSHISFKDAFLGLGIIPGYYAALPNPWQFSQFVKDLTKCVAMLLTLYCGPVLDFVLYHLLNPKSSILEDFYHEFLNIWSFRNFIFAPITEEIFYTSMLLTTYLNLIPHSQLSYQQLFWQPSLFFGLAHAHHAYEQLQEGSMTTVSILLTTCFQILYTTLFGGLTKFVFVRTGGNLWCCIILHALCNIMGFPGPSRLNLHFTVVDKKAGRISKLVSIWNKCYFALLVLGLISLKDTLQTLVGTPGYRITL

[10] = biological target: T7, Microphthalmia-associated transcription factor (Homo sapiens, UniProt O75030); assay: TRPM1 promoter luciferase signal decrease, dose response, MITF inhibitor project, cell-based, SK-MEL-5, cherry-picked, set 3 (AID 493073); format: functional
T7 sequence (O75030 whole entry): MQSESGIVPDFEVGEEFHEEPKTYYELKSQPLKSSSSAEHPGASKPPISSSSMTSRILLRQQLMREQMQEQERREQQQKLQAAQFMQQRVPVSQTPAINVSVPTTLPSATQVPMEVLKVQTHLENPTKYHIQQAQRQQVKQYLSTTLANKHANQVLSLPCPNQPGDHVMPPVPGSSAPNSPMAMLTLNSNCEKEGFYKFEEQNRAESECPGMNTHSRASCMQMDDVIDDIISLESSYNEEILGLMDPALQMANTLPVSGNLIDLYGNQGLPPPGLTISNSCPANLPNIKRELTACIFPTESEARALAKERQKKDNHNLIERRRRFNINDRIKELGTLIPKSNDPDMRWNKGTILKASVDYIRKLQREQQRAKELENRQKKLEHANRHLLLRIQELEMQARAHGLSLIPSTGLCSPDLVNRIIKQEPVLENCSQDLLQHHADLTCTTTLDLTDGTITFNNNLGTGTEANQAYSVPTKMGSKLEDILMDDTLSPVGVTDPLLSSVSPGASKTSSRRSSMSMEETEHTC

A-375 [11] = assay: A375 melanoma cell viability reduction, dose response, counter-screen for MITF modulator project, cherry-pick samples, set 2 (AID 540335); format: functional, cell-based; conditions: Homo sapiens
Jurkat = assay: antigen receptor-induced NF-kB inhibitors, dose response, Jurkat, luciferase reporter, luminescence, B- and T-cell (AID 489004); format: functional, cell-based; conditions: Homo sapiens;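 note: NF-kB luciferase reporter Jurkat cells stimulated with PMA plus ionomycin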
[12] = cytotoxicity in HEK-293T NF-kB-Luc cells, dose response, cytotoxicity control for B/T-cell NF-kB inhibitor project, cell-based, uHTS hits (AID 489019); format: functional;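 note: IC50 reflects cytotoxicity as loss of cell viability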
A-375 [13] = assay: MITF: Counter assay: A375 proliferation Measured in Cell-Based System Using Plate Reader - 2084-03_Inhibitor_Dose_DryPowder_Activity. [Related pubchem assays (depositor defined):AID488944]; format: functional; conditions: Homo sapiens
[14] = insulin promoter down-regulators in MIN6 cells, imaging, high-content screening, mouse beta cells (AID 1628); format: functional
[15] = cytotoxicity in MIN6 insulinoma cells, dose response, cytotoxicity control, cell-based, mouse insulinoma (AID 2122); format: functional;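 note: confirmatory high-throughput counterscreen run to flag cytotoxic compounds; mouse MIN-6 beta cells carrying an insulin promoter eGFP reporter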
[16] = HepG2 cell cytotoxicity, dose response, cytotoxicity control for Shn3 inhibitor project, CellTiter-Glo, cherry-picked (AID 624134); format: functional, cell-based
[17] = Shn3 3'UTR reporter inhibitors, dose response, cell-based, Clone20 osteoblasts, firefly luciferase, cherry-picked (AID 624132); format: functional;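 note: firefly luciferase luminescence from reporter carrying the Shn3 3'UTR in osteoblasts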
[18] = control 3'UTR Renilla luciferase suppression, dose response, counter-screen for Shn3 inhibitor project, cell-based, Clone20-Shn3RL, cherry-picked (AID 624133); format: functional
[19] = biological target: Phosphoethanolamine/phosphocholine phosphatase (Homo sapiens, UniProt Q8TCT1); assay: SAR assay for compounds that inhibit PHOSPHO1. [Related pubchem assays (depositor defined):AID1545, AID1565, AID1574]
Phosphoethanolamine/phosphocholine phosphatase, sequence (Q8TCT1 whole entry): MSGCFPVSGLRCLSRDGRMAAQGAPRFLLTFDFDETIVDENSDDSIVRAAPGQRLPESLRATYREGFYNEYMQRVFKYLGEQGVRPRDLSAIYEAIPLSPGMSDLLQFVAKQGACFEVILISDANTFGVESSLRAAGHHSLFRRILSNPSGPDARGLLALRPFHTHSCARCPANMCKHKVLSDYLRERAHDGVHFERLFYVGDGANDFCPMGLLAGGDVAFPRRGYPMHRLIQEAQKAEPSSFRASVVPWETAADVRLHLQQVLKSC

[20] = biological target: T8, Mannose-6-phosphate isomerase (Homo sapiens, UniProt P34949); assay: Confirmation of compounds inhibiting phosphomannose isomerase (PMI) via a fluorescence intensity assay using a high concentration of mannose 6-phosphate. [Related pubchem assays (depositor defined):AID1209, AID1220, AID1545, AID1553, AID1620]
T8 sequence (P34949 whole entry): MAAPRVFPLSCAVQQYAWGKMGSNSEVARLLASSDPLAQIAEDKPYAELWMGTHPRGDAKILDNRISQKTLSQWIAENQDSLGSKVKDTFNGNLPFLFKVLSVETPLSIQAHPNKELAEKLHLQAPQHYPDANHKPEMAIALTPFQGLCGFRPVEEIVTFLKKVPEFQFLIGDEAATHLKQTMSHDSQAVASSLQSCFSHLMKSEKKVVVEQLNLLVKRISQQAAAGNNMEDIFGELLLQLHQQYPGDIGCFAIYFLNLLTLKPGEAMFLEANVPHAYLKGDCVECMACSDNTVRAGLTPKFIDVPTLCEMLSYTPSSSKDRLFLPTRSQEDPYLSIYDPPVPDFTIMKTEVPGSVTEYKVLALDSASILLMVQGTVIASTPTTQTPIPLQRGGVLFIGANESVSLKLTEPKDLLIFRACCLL

[21] = biological target: T8, Mannose-6-phosphate isomerase; assay: PMI enzyme inhibitors, confirmation, biochemical, fluorescence intensity (AID 1535)
Phosphomannomutase 2 = Phosphomannomutase 2 (Homo sapiens, UniProt O15305); assay: Counter screen SAR assay for PMM2 inhibitors via a fluorescence intensity assay. [Related pubchem assays (depositor defined):AID1545, AID1574]
Phosphomannomutase 2, sequence (O15305 whole entry): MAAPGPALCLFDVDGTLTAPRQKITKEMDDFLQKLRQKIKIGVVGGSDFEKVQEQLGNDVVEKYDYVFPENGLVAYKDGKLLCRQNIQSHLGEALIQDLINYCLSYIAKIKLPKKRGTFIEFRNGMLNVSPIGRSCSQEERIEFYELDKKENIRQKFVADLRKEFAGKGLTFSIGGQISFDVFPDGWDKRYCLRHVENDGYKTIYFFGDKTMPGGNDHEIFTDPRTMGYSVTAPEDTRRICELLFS

SMILES: N#CC[N+]1(Cc2ccccn2)CCCC1.O=S(=O)([O-])c1ccccc1
- AC50 (Cytochrome P450 1A2): inactive

SMILES: O=C(O)CSc1cc(C(=O)c2ccccc2O)cn2c(=O)c3c4c(sc3nc12)CCCC4
- IC50 [1]: 19 µM (active)
- IC50 [2]: > 158 µM (not active)
- IC50 [3]: > 99 µM (inactive)
- IC50 [4]: 14.1 µM (active)
- IC50 (Aminopeptidase N): 19.5 µM (active)
- IC50 [5]: 2.62 µM (active)
- IC50 [6]: 0.576 µM (active)
- IC50 [7]: 7.42 µM (active)
- IC50 [8]: 13.5 µM (active)
- AC50 [9]: 5.07 µM (active)
- IC50 (Genome polyprotein): 94.1 µM (active)

SMILES: COc1cccc2c(O)c(C(=O)O)cnc12
- AC50 (Trypsin): 64.1 µM (active)
- AC50 (CAAX prenyl protease 1): 6.84 µM (active)
- AC50 (CAAX prenyl protease 2): 36 µM (active)

SMILES: CCOc1ccc(/C=C2\SC(=S)N(CCC(=O)O)C2=O)cc1
- AC50 [10]: 0.577 µM (active)
- AC50 (A-375 [11]): > 35 µM (active)
- IC50 (Jurkat): < 0.16 µM (active)
- IC50 [12]: > 80 µM (inactive)
- AC50 (A-375 [13]): > 35 µM (active)

SMILES: COc1ccccc1NC(=O)Cc1nn(C)c(=O)c2ccccc12
- IC50 [14]: 3.14 µM (active)
- IC50 [15]: 2.11 µM (active)
- AC50 [16]: 58.6 µM (active)
- AC50 [17]: 1.97 µM (active)
- AC50 [18]: 2.05 µM (active)

SMILES: Cc1ccc(C)c(N2Cc3ccccc3C2=O)c1
- IC50 [19]: > 100 µM (inactive)
- IC50 [20]: > 100 µM (inactive)
- IC50 [21]: > 100 µM (inactive)
- IC50 (Phosphomannomutase 2): > 100 µM (inactive)
